The test system of data set [1] is carbonylated type I collagen in three-dimensional human skin model. Put plainly: Carbonylated collagen in three-dimensional human skin model, type I collagen immunoprecipitation and Western blotting. It counts as cell-based. The note with it: silybin 3 μM, Bletilla striata extract 0.1%, soybean saponin 0.0005%, alone or combined; for Relative photographic density (carbonylated collagen): Table 8, non-reduced protein, untreated without UV = 100%. The protocol: (§1) Three-dimensional human skin models are widely used in safety evaluation and effectiveness evaluation as a simulated model of human skin. In this test, TESTSKIN (LSE-high) (Toyobo Co., Ltd.) was used as a three-dimensional human skin model.
(§2) A culture medium was added to the outer well of TESTSKIN (LSE-high) and cultured for 24 hours. UVA and UVB were irradiated at 10 J/cm^2 and 100 mJ/cm^2, respectively. UVB was irradiated for 2 minutes at a UV intensity of […] using FL20S-E-30/DMR (Clinical Supply Co., Ltd.) to achieve a total irradiation dose of 100 mJ/cm^2. UV intensity was measured using a UV MONITOR MS-211-I (Eiko Instruments Co., Ltd.).
Thereafter, the culture solution was changed and each agent was added by 100 μl onto the tissues in the assay ring, after which the medium was cultured for 36 hours. […]
Using the protein derived from the three-dimensional human skin model extract treated with each agent, type I collagen was immunoprecipitated by means of a known method (Mizushima, et al., Jpn. J. Cancer Res. Vol. 93, pp. 652-659, 2002). […] The immunoprecipitate was washed three times using a STEN buffer solution, after which 50 μl of a SDS-PAGE sample buffer solution was added and the amount of carbonylated protein and amount of type I collagen were measured by means of Western blotting.
From the results shown in FIG. 7 and Table 7, it is clear that using silybin in combination with Bletilla striata extract, or using silybin in combination with soybean saponin, synergistically suppresses carbonylated protein. Next, whether or not carbonylation of type I collagen would be suppressed by using silybin in combination with Bletilla striata extract, or using silybin in combination with soybean saponin, was evaluated to check the possibility of using such combinations to remove oxidized collagen that accumulates with age to cause lines, sagging, dull complexion and other signs of aging skin. […]
A general note: A western blot detects proteins with antibodies after separation by electrophoresis.

Data set [2] has as its system trypsin-like proteasome activity in three-dimensional human skin model. Put plainly: Proteasome activity in three-dimensional human skin model. It counts as cell-based. The following applies: for proteasome activity compared to the sample not given any treatment: without UV irradiation. The protocol:
as §1, §2
Thereafter, the culture solution was changed and each agent was added by 100 μl onto the tissues in the assay ring, after which the medium was cultured for 36 hours. Thereafter, the tissues were collected and a tissue extraction solution (50 mM Tris-HCl (pH 7.5), 0.5% (Octylphenoxy) polyethoxyethanol (Sigma-Aldrich Corp.)) was added, and then the mixture was homogenized using a Teflon (registered trademark) homogenizer. The homogenized mixture was centrifuged for 30 minutes at 10,000×G to remove tissue fragments, and then dialyzed overnight in distilled water at 4° C. Thereafter, the dialyzed mixture was freeze-dried to remove water. A tissue extraction solution was added to obtain a ×20 concentrate, and this concentrate was used as a three-dimensional skin model extract sample.
Proteasome activity was measured using a known method (Hayashi, et al., Mechanisms of Aging and Development, Vol. 102, pp. 55-66, 1998) based on cell extract samples.
The specific method is as follows. For the matrix to measure trypsin-like proteasome activity, t-butyloxycarbonyl-L-leucyl-L-arginyl-L-arginyl-L-4-methyl-coumaryl-7-amide (Peptide Institute, Inc.) was used. A cell extract sample containing protein by an equivalent of 10 μg was added to 10.5 μl of a 100 μM matrix solution prepared with 100 mM Tris-HCl (pH 8.0), after which a cell extraction solution was added to a total volume of 50 μl. The obtained solution was treated for 30 minutes at 37° C., after which the fluorescence intensity of the separated 7-amine-4-methyl coumarin was measured at an excitation wavelength (Ex) of 380 nm and absorption waveform (Em) of 440 nm. The result was obtained for each sample type treated with each agent, as an “average ±standard error” calculated from the measured values of three samples.
Based on the above results, it is clear that Bletilla striata extract and silybin promote proteasome activity in a three-dimensional skin model in a manner dependent on the concentration. Accordingly, whether or not a combined use of Bletilla striata extract and silybin would synergistically promote proteasome activity was evaluated. Also, whether or not a combined use of silybin and soybean saponin, a substance known to have an action to promote proteasome activity, would synergistically promote proteasome activity was evaluated. As a result, regardless of whether or not UV light was irradiated, using silybin (3 μM) in combination with Bletilla striata extract (0.1%; final extract concentration of 0.001%), or using silybin (3 μM) in combination with soybean saponin (0.0005%), promoted proteasome activity synergistically compared to when a sample was treated with silybin (3 μM), Bletilla striata extract (0.1%; final extract concentration of 0.001%) or soybean saponin (0.0005%) alone, as far as promotion of proteasome activity in a three-dimensional skin model was concerned (FIG. 12).

In data set [3] the test system is three-dimensional human skin model. Briefly: Cell toxicity at treatment concentrations in three-dimensional human skin model. The note with it: at 3 and 10 μM.
[4] abbreviates: FIG. 11, 3 μM, under UV irradiation.
[5] abbreviates: FIG. 11, 10 μM, under UV irradiation.
The mark [6] stands for this setting: FIG. 12, under UV irradiation, silybin 3 μM, Bletilla striata extract 0.1%, soybean saponin 0.0005%, alone or combined.

For `COc1cc(C2Oc3cc([C@H]4Oc5cc(O)cc(O)c5C(=O)[C@@H]4O)ccc3OC2CO)ccc1O` (stereo partly shown) [Silybin, silybin], the “Relative photographic density (carbonylated collagen)” value in data set [1] (head printed UV (−)) is 430%; in data set [1] (first column UV (−)), 72%. The “amount of carbonylated collagen compared to the sample not given any treatment under UV irradiation” value in data set [1] (non-reduced protein, UV irradiation) is reported as 72%. The entries for the “proteasome activity compared to the sample not given any treatment under UV irradiation (75%)” value in data set [2] (setting [4]) and in data set [2] (setting [5]) were 140% and 170%, respectively. For the same compound, the results for the “relative proteasome activity level” value in data set [2] (setting [4]), in data set [2] (setting [5]) and in data set [2] (setting [6]) were 105%, 128% and 88%, respectively. Further, the “proteasome activity compared to the sample not given any treatment” value was determined as 145% in data set [2] (FIG. 11, 3 μM); 178% in data set [2] (FIG. 11, 10 μM); 125% in data set [2] (FIG. 12, silybin 3 μM, Bletilla striata extract 0.1%, soybean saponin 0.0005%, alone or combined). The “proteasome activity compared to the sample not given any treatment under UV irradiation (73%)” value in data set [2] (setting [6]) amounted to 121%. Further, the cell toxicity result in data set [3] is given as “does not occur”.

The values are drawn from patent US20110003760A1, “ABNORMAL PROTEIN REMOVING METHOD” (priority 2005, published 2011).
